Data as given in ChEMBL document CHEMBL4507291 (2021).

How the values were obtained:
[1] = target: T1, Inhibitor of nuclear factor kappa-B kinase subunit beta (Homo sapiens) (UniProt O14920)
T1 sequence (whole entry): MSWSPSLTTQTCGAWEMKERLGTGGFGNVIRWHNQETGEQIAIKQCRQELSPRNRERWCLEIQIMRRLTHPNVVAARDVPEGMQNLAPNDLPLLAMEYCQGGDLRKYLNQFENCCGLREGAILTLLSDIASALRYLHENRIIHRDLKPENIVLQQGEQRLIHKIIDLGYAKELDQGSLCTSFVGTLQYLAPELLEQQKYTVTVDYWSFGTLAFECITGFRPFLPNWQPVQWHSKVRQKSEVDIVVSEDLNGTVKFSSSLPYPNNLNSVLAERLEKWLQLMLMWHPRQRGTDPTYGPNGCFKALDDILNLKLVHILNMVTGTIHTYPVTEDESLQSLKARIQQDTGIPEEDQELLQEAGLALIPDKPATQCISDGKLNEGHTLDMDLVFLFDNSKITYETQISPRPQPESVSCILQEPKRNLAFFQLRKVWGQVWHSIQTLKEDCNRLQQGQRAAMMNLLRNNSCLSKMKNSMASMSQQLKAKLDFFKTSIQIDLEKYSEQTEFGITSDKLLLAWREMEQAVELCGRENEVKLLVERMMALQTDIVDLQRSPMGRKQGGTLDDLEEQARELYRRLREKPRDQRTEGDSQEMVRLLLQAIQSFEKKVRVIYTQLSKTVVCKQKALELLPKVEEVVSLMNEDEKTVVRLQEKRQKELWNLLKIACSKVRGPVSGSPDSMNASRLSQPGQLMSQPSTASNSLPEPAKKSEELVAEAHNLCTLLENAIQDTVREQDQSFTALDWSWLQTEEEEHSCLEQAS

[2] = target: Calcium/calmodulin-dependent protein kinase type II subunit beta (Homo sapiens) (UniProt Q13554)
[3] = system: Tyrosine-protein kinase ABL1 (Homo sapiens), P00519 [M351T]
[4] = target: T2, Muscarinic acetylcholine receptor M1 (Homo sapiens) (UniProt P11229); conditions: Compound concentration 10.0 uM
T2 sequence (whole entry): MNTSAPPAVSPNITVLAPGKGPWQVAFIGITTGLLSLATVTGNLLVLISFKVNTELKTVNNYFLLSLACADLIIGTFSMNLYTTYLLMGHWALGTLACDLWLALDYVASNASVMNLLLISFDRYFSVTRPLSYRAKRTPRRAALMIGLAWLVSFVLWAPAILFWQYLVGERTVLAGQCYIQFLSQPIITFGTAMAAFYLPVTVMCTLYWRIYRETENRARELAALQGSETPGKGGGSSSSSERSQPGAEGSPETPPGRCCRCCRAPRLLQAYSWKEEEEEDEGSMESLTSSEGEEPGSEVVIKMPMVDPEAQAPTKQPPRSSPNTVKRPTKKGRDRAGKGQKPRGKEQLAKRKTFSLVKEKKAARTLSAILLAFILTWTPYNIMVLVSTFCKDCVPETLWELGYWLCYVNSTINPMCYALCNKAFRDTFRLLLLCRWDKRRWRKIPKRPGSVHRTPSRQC

[5] = system: Tyrosine-protein kinase ABL1 (Homo sapiens), P00519 [F317I]
[6] = target: Mitogen-activated protein kinase kinase kinase kinase 4 (Homo sapiens) (UniProt O95819)
[7] = target: Mitogen-activated protein kinase kinase kinase 20 (Homo sapiens) (UniProt Q9NYL2)
[8] = target: Ribosomal protein S6 kinase alpha-5 (Homo sapiens) (UniProt O75582)
[9] = target: T3, Tyrosine-protein kinase receptor TYRO3 (Homo sapiens) (UniProt Q06418)
T3 sequence (whole entry): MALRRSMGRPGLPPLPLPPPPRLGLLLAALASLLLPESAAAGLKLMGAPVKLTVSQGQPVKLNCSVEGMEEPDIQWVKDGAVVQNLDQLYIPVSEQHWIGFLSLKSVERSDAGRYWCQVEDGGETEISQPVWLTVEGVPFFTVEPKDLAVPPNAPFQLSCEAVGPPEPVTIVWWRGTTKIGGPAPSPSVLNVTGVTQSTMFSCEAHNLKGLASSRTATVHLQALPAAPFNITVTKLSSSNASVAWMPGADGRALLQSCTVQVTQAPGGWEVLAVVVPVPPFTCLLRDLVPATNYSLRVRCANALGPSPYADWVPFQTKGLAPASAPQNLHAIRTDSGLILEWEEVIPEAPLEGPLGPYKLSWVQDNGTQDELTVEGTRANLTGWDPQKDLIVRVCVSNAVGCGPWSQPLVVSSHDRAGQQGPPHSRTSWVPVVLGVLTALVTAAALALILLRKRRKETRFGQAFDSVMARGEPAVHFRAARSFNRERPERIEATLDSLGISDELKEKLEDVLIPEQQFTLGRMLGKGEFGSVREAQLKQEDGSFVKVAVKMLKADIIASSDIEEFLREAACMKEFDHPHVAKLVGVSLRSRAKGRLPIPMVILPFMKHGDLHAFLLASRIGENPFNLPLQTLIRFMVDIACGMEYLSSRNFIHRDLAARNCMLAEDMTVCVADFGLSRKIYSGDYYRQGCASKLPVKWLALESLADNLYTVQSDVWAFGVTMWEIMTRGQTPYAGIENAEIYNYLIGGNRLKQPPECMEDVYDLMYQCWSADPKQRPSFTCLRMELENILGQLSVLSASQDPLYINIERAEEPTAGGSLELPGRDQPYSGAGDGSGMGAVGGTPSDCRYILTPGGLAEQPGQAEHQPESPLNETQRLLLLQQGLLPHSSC

[10] = target: Cyclin-dependent kinase 11B (Homo sapiens) (UniProt P21127)
[11] = Compound concentration 100.0 nM
[12] = Compound concentration 1000.0 nM

Sequence of Cyclin-dependent kinase 11B (Homo sapiens) (P21127 whole entry): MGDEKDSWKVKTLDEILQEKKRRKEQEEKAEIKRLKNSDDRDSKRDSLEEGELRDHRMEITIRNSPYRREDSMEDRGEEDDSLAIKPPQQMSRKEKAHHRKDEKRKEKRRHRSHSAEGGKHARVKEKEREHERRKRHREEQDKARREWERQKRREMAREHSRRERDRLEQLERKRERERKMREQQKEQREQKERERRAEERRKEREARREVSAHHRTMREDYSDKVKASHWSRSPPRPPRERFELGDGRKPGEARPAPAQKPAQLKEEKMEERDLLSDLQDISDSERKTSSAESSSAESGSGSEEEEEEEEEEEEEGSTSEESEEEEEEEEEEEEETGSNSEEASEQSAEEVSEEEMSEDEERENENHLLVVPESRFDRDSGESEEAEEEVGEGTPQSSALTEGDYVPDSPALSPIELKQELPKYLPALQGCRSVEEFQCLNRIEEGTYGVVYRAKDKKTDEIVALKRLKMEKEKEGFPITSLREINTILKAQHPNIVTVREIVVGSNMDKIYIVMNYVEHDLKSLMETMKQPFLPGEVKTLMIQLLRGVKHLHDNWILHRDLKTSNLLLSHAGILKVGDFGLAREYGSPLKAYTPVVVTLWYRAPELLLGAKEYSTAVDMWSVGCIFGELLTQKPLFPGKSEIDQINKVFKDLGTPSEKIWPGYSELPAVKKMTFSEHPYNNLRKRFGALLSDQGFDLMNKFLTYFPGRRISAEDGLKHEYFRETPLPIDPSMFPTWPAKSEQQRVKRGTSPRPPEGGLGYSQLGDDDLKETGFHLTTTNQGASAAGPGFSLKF
Sequence of Mitogen-activated protein kinase kinase kinase kinase 4 (Homo sapiens) (O95819 2-1239 limits assumed): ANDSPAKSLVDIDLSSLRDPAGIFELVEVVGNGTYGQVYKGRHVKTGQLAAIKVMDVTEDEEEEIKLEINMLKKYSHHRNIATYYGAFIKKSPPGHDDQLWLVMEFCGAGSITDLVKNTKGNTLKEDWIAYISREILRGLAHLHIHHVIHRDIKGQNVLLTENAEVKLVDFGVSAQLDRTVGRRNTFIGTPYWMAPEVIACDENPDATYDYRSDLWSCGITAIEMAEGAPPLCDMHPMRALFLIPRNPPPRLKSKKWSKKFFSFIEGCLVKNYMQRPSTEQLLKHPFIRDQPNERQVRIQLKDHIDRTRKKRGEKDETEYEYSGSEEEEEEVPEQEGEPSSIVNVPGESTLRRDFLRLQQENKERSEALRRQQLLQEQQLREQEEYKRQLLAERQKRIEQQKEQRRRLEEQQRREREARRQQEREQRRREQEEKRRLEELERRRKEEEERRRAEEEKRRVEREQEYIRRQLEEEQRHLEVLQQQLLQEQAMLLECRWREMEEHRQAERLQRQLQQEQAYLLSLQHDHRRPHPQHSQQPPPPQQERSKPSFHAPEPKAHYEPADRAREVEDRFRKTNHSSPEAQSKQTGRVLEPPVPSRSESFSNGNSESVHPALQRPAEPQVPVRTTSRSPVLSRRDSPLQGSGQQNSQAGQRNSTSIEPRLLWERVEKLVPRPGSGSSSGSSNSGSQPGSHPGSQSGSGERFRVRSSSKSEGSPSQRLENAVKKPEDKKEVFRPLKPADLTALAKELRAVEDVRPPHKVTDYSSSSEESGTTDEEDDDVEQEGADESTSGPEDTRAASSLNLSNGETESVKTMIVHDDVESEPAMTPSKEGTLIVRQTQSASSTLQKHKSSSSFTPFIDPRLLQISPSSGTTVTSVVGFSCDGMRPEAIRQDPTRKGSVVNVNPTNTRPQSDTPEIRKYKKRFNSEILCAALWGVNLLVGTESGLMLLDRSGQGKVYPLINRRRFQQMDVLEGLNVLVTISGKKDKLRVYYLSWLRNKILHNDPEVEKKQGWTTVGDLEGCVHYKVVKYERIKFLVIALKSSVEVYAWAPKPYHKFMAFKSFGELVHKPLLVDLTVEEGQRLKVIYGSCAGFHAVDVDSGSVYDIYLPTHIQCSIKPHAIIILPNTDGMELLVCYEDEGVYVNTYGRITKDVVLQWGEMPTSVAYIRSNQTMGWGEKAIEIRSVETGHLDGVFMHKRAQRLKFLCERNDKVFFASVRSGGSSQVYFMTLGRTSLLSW
Sequence of Ribosomal protein S6 kinase alpha-5 (Homo sapiens) (O75582 whole entry, looked up): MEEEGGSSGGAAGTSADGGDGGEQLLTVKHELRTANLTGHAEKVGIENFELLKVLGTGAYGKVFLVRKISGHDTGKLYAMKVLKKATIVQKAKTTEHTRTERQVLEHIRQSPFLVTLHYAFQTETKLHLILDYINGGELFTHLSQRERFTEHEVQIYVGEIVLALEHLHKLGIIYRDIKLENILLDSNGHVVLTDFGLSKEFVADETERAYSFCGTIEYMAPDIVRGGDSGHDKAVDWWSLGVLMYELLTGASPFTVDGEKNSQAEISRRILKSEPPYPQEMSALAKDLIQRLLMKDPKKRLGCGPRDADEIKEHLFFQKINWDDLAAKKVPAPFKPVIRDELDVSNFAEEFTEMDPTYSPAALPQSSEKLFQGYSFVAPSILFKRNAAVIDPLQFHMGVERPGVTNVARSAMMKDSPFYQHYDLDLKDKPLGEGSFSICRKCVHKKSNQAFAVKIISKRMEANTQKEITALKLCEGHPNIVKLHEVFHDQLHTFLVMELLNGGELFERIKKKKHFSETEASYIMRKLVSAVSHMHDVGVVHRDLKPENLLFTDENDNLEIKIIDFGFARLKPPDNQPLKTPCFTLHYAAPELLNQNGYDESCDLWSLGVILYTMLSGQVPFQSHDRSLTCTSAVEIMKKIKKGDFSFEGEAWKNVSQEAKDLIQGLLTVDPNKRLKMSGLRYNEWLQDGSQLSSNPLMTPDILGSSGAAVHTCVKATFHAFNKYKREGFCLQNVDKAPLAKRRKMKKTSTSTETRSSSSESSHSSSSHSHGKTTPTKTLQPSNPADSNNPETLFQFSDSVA
Sequence of Calcium/calmodulin-dependent protein kinase type II subunit beta (Homo sapiens) (Q13554 whole entry): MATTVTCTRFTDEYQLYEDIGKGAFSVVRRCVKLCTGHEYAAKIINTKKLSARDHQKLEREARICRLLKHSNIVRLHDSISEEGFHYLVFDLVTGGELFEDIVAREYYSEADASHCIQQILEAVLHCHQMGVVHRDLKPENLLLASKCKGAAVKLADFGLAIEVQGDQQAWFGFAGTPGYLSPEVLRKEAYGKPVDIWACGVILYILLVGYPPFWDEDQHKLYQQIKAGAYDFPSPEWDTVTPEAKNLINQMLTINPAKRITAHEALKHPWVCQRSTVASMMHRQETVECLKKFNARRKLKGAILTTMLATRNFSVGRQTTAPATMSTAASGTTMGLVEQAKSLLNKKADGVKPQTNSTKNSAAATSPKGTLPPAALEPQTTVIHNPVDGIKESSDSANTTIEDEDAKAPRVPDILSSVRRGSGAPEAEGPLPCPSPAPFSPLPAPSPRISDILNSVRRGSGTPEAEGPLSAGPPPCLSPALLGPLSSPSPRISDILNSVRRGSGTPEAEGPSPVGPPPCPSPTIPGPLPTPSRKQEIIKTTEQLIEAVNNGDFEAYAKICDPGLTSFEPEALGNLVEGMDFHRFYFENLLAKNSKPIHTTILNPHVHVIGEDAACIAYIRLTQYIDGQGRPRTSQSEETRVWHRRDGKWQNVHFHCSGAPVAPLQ
Sequence of Mitogen-activated protein kinase kinase kinase 20 (Homo sapiens) (Q9NYL2 2-800 limits assumed): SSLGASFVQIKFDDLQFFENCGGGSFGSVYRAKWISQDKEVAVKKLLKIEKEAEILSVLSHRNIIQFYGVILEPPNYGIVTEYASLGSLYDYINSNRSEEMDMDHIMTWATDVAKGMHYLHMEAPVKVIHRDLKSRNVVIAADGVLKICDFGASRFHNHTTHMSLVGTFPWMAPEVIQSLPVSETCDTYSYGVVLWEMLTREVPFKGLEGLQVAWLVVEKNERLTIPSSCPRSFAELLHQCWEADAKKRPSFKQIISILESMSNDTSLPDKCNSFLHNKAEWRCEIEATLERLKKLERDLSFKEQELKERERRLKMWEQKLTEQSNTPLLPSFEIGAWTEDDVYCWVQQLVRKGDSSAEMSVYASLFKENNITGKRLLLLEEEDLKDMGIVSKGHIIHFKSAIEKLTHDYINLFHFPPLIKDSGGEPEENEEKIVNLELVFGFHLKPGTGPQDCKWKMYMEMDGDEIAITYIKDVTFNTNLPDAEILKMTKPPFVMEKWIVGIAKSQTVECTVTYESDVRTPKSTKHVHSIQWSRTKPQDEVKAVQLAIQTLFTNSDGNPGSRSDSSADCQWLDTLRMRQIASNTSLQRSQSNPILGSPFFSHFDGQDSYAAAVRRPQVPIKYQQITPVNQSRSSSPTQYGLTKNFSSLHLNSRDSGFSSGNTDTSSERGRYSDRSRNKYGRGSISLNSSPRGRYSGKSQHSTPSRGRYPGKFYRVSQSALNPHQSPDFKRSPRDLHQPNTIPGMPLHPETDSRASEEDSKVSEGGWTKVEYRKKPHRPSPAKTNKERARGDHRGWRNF

C[C@@H]1CN(c2cc(-c3n[nH]c4ccc(OC5(C)CC5)cc34)ncn2)C[C@H](C)O1 [MLi-2]
inactive: residual activity [1, 11] 84% | residual activity [2, 11] 100% | residual activity [3, 11] 95% | inhibition [4] 3.04% | residual activity [5, 11] 74% | residual activity [6, 11] 98% | residual activity [7, 11] 92% | residual activity [8, 11] 89% | residual activity [9, 11] 100% | residual activity [10, 11] 88%

C[C@@H]1CN(c2cc(-c3nn(C)c4ccc(OC5(C)CC5)cc34)ncn2)C[C@H](C)O1 [MLi-2-NC]
inactive: residual activity [1, 12] 76% | residual activity [2, 12] 96% | residual activity [3, 12] 91% | inhibition [4] -1.02% | residual activity [5, 12] 62% | residual activity [6, 12] 100% | residual activity [7, 12] 100% | residual activity [8, 12] 79% | residual activity [9, 12] 93% | residual activity [10, 12] 88%
